Results on four compounds are retold here after EPA's ToxRefDB 2.

Data set [1] has as its system dog. To be noted: Sub-acute repeat dose toxicity; beagle; Oral; Gavage/Intubation; dose end: 30 day; group: systemic; systemic / in life observation / clinical signs / emesis + systemic / clinical chemistry / [other] / [other] + systemic / clinical chemistry….
Data set [2] relates to dog. As to conditions: Sub-acute repeat dose toxicity, beagle, Oral, Gavage/Intubation, dose end: 10 day, group: systemic.
The subject of data set [3] is rat. As to conditions: Sub-acute repeat dose toxicity; sprague dawley; Oral; Gavage/Intubation; dose end: 10 day; group: systemic; systemic / clinical chemistry / sorbitol dehydrogenase / sorbitol dehydrogenase.
In data set [4] the test system is rat. To be noted: Sub-acute repeat dose toxicity, sprague dawley, Oral, Gavage/Intubation, dose end: 28 day, group: systemic.
For data set [5], the system named is mouse. As to conditions: Carcinogenicity, other, Oral, Feed, dose end: 2 year, group: systemic.
Data set [6] relates to rat. As to conditions: Combined chronic toxicity/carcinogenicity, fischer, Oral, Feed, dose end: 105 week, group: systemic.
Data set [7] relates to rat. As to conditions: Combined chronic toxicity/carcinogenicity; fischer; Oral; Feed; dose end: 25 month; group: systemic; systemic / clinical chemistry / creatinine / creatinine + systemic / clinical chemistry / gamma glutamyl transpeptides (gtp) / gamma ….
Data set [8] has as its system rat. To be noted: Combined chronic toxicity/carcinogenicity, sprague dawley, Oral, Feed, dose end: 26 month, group: systemic.
Another data set has as its system rabbit. To be noted: Prenatal developmental toxicity study, dutch, Oral, Gavage/Intubation, dose end: 27 GD.
For data set [9], the system named is rat. As to conditions: Subchronic oral toxicity in rodents, fischer, Feed, dose end: 13 week, group: systemic, systemic / clinical chemistry / cholesterol / cholesterol + systemic / organ weight / kidney / relative to body weight + systemic / organ ….
In data set [10] the test system is mouse. As to conditions: Subchronic oral toxicity in rodents, cd1, Feed, dose end: 13 week.
The subject of data set [11] is rat. To be noted: Subchronic oral toxicity in rodents, sprague dawley, Feed, dose end: 90 day, group: systemic, systemic / organ weight / liver / absolute + systemic / organ weight / liver / relative to body weight + systemic / organ weight / thyroid ….
The test system of data set [12] is dog. To be noted: Chronic toxicity; beagle; Oral; Feed; dose end: 52 week; group: systemic; systemic / clinical chemistry / alkaline phosphatase (alp/alk) / alkaline phosphatase (alp/alk) + systemic / organ weight / liver / absolute….
The subject of data set [13] is mouse. To be noted: Carcinogenicity, cd1, Oral, Feed, dose end: 78 week, group: systemic.
Data set [14] concerns rat. As to conditions: Subchronic oral toxicity in rodents, other, Feed, dose end: 90 day, group: systemic.
Data set [15] has as its system dog. To be noted: Chronic toxicity, beagle, Oral, Capsule, dose end: 52 week, group: systemic.
Data set [16] deals with rat. As to conditions: Subchronic oral toxicity in rodents, other, Feed, dose end: 90 day, group: systemic. This is another data set of the same source.
Data set [17] concerns mouse. As to conditions: Subchronic oral toxicity in rodents, cd1, Feed, dose end: 90 day, group: systemic.
Data set [18] relates to dog. As to conditions: Subchronic oral toxicity in nonrodent, beagle, Capsule, dose end: 96 day, group: systemic.
The mark [19] stands for this setting: systemic / in life observation / clinical signs / arrhythmia.
Where [20] appears, read: systemic / in life observation / clinical signs / arrhythmia + systemic / in life observation / clinical signs / convulsions.
[21] abbreviates: systemic / clinical chemistry / cholesterol / cholesterol + systemic / clinical chemistry / sorbitol dehydrogenase / sorbitol dehydrogenase….
[22] abbreviates: systemic / organ weight / liver / absolute.
The mark [23] stands for this setting: systemic / clinical chemistry / alkaline phosphatase (alp/alk) / alkaline phosphatase (alp/alk) + systemic / clinical chemistry / chloride….
The mark [24] stands for this setting: systemic / clinical chemistry / chloride / chloride + systemic / clinical chemistry / potassium / potassium + systemic / clinical chemistry….
Where [25] appears, read: systemic / in life observation / body weight / body weight + systemic / organ weight / kidney / relative to body weight + systemic / ….
[26] abbreviates: systemic / pathology microscopic / kidney / nephropathy + systemic / pathology microscopic / liver / degeneration.
Setting [27] is: systemic / pathology microscopic / kidney / nephropathy + systemic / pathology microscopic / liver / degeneration + systemic / pathology ….
Where [28] appears, read: group: developmental, systemic / in life observation / body weight / fetal weight.
[29] abbreviates: group: maternal, reproductive / reproductive performance / aborted / aborted + systemic / in life observation / body weight / body weight gain + systemic / ….
Where [30] appears, read: group: cholinesterase, cholinesterase / cholinesterase / cholinesterase / brain cholinesterase (che).
[31] abbreviates: group: systemic, systemic / organ weight / liver / absolute + systemic / organ weight / liver / relative to body weight + systemic / organ weight / liver / ….
Setting [32] is: systemic / hematology / erythrocyte (rbc) count differential / erythrocyte (rbc) + systemic / hematology / hematocrit (hct) / hematocrit (….
The mark [33] stands for this setting: systemic / pathology microscopic / liver / vacuolization.
Setting [34] is: systemic / organ weight / spleen / relative to body weight.
The mark [35] stands for this setting: systemic / in life observation / body weight / body weight gain + systemic / in life observation / food consumption / food efficiency.
Where [36] appears, read: systemic / in life observation / clinical signs / abdominogenital staining + systemic / in life observation / clinical signs / urinary ….
The mark [37] stands for this setting: systemic / in life observation / clinical signs / abdominogenital staining + systemic / in life observation / water consumption / water ….
Where [38] appears, read: systemic / pathology microscopic / liver / vacuolization + systemic / hematology / erythrocyte (rbc) count differential / erythrocyte (rbc….
Setting [39] is: systemic / in life observation / body weight / body weight gain + systemic / in life observation / food consumption / food efficiency + ….

Broadly, the LOAEL is the lowest tested level that showed an adverse finding. The term NOAEL denotes the highest dose or exposure tested at which no adverse effect was seen. Take `Cc1nc(C)nc(N2C[C@@H](C)N(c3ccnc([C@@H](C)O)n3)[C@@H](C)C2)n1`: the LEL was 6 mg/kg/day with dog [1], 1 mg/kg/day with dog [2] (setting [19]), 1 mg/kg/day with rat [3] and 2 mg/kg/day with rat [4] (setting [22]). Further, the lowest observed adverse effect level (LOAEL) is over 6 mg/kg/day in the data set with dog [1], over 6 mg/kg/day in the data set with dog [2] (setting [20]), over 10 mg/kg/day in the data set on rat [3] and over 20 mg/kg/day with rat [4] (setting [21]). For the same compound, the NEL in the data set with dog [1] was under 6 mg/kg/day; with dog [2] (setting [19]), under 1 mg/kg/day; in the data set with rat [3], under 1 mg/kg/day; in the data set with rat [4] (setting [22]), under 2 mg/kg/day. Also, the no observed adverse effect level (NOAEL) was at least 6 mg/kg/day in the data set with dog [1], at least 6 mg/kg/day in the data set with dog [2] (setting [20]), at least 10 mg/kg/day in the data set on rat [3] and at least 20 mg/kg/day in the data set on rat [4] (setting [21]).

As to `c1ccc(-c2ccccc2)cc1` [Biphenyl], in the data set on mouse [5] (setting [23]), the LOAEL was over 1050 mg/kg/day and the NOAEL was at least 1050 mg/kg/day. In addition, in the data set on mouse [5] (setting [24]), the LEL worked out at 97 mg/kg/day and the NEL is under 97 mg/kg/day. Also, in the data set with rat [6] (setting [25]), the LOAEL was over 225 mg/kg/day, the NEL came out at 25 mg/kg/day and the no-observed-adverse-effect level (NOAEL) is at least 225 mg/kg/day. Besides, the LEL in the data set with rat [6] (systemic / organ weight / kidney / relative to body weight) worked out at 75 mg/kg/day.

Turning to `CCCCOCN(C(=O)CCl)c1c(CC)cccc1CC` [Butachlor], the LEL in the data set with rat [7] is 37.1 mg/kg/day; with rat [8] (setting [27]), 4.5 mg/kg/day; in the data set on rabbit (setting [28]), 150 mg/kg/day; in the data set with rabbit (setting [29]), 150 mg/kg/day; in the data set with rat [9], 58.7 mg/kg/day; with mouse [10] (setting [30]), 150 mg/kg/day. Also, the LEL with mouse [10] (setting [31]) was 150 mg/kg/day; in the data set with rat [11], 50 mg/kg/day; in the data set with dog [12] it was 25 mg/kg/day. Also, the LOAEL was 37.1 mg/kg/day with rat [7]; 4.5 mg/kg/day in the data set on rat [8] (setting [26]); 150 mg/kg/day in the data set with rabbit (setting [28]); 150 mg/kg/day in the data set with rabbit (setting [29]); 58.7 mg/kg/day with rat [9]; over 900 mg/kg/day in the data set on mouse [10] (setting [30]). For the same compound, the LOAEL is 150 mg/kg/day in the data set with mouse [10] (setting [31]), 50 mg/kg/day in the data set on rat [11] and 25 mg/kg/day in the data set on dog [12]. The NEL in the data set with rat [7] is 3.65 mg/kg/day; in the data set on rat [8] (setting [27]), under 4.5 mg/kg/day; with rabbit (setting [28]), 50 mg/kg/day; in the data set with rabbit (setting [29]) it was 50 mg/kg/day; in the data set on rat [9], 17.5 mg/kg/day; in the data set with mouse [10] (setting [30]), under 150 mg/kg/day. Moreover, the figures for the NEL in the data set on mouse [10] (setting [31]), with rat [11] and with dog [12] were under 150 mg/kg/day, under 50 mg/kg/day and 5 mg/kg/day, respectively. In addition, the NOAEL in the data set with rat [7] was 3.65 mg/kg/day; in the data set with rat [8] (setting [26]), under 4.5 mg/kg/day; in the data set on rabbit (setting [28]) it was 50 mg/kg/day; with rabbit (setting [29]), 50 mg/kg/day; in the data set with rat [9] it was 17.5 mg/kg/day; in the data set with mouse [10] (setting [30]), at least 900 mg/kg/day. Moreover, the figures for the NOAEL in the data set on mouse [10] (setting [31]), with rat [11] and in the data set on dog [12] were under 150 mg/kg/day, under 50 mg/kg/day and 5 mg/kg/day, respectively.

Consider `CCOC(=O)COc1cc(-n2ncc(C(F)(F)F)c(C)c2=O)c(F)cc1Cl` [Flufenpyr-ethyl], for which the LOAEL in the data set with mouse [13] (setting [32]) amounted to 402 mg/kg/day; with rat [14] (systemic / in life observation / clinical signs / body surface staining + systemic / in life observation / clinical signs / urinary …), 414 mg/kg/day; in the data set with dog [15] (systemic / in life observation / body weight / body weight gain), 1000 mg/kg/day; in the data set with rat [16] (setting [36]), 595 mg/kg/day; with mouse [17] (setting [33]), 395 mg/kg/day; in the data set with dog [18] (setting [35]), 1000 mg/kg/day. Further, the NOAEL with mouse [13] (setting [32]) was found to be 39.9 mg/kg/day; with rat [14] (systemic / organ weight / spleen / relative to body weight + systemic / in life observation / clinical signs / body surface staining + …), 134 mg/kg/day; in the data set with dog [15] (setting [35]), 200 mg/kg/day; in the data set with rat [16] (setting [36]), 55 mg/kg/day; in the data set with mouse [17] (setting [38]), 128 mg/kg/day; in the data set with dog [18] (setting [39]), 300 mg/kg/day. The LEL is 397 mg/kg/day in the data set on mouse [13] (setting [33]); 39 mg/kg/day with rat [14] (setting [34]); 200 mg/kg/day in the data set on dog [15] (setting [35]); 55 mg/kg/day in the data set with rat [16] (setting [37]); 395 mg/kg/day in the data set on mouse [17] (setting [33]); 100 mg/kg/day in the data set with dog [18] (setting [39]). Also, the NEL in the data set on mouse [13] (setting [33]) was 43.5 mg/kg/day; in the data set on rat [14] (setting [34]), under 39 mg/kg/day; in the data set on dog [15] (setting [35]), 50 mg/kg/day; in the data set with rat [16] (setting [37]) it was under 55 mg/kg/day; with mouse [17] (setting [38]), 128 mg/kg/day; in the data set on dog [18] (setting [39]) it was under 100 mg/kg/day.
